Test results taken from PMC12345137 (mBio, 2025).
Like-named read-outs stand apart in the source and are kept apart here. Positions of bridges follow the written chain, without caps; N, C: chain ends. Residues, ends and D or L forms follow the SMILES beside them.

What was measured:
[1] = tested on: S. epidermidis (SE) agr-I; design: method as in ref (9) (a number printed in a supplementary file, which may have a reference list of its own: not looked up in the article's list); settings: HPLC d-toxin, ref (9); cited from earlier work
S. aureus (SA) agr-IV [2] = settings: b-lactamase; ref (4); cited from earlier work
S. aureus (SA) agr-III = settings: b-lactamase, cited from earlier work
S. aureus (SA) agr-II = settings: b-lactamase, cited from earlier work
[3] = tested on: methicillin resistant S. aureus (MRSA43484); assay type: in vivo, Balb/c female mice
Description: The mouse model was performed under contract at Statens Serum Institut (DK) essentially as previously described ([64]). […] All animal experiments were approved by the National Committee of Animal Ethics, Denmark. Mice were anesthetized, and the hair was removed on a 2 cm^2 skin area on the back, and thereafter, the outermost layer of the skin was scraped off with a dermal curette to obtain a 1 cm^2 superficial skin lesion. For vehicle control and Fucidin treatment, 10 μL inoculum containing approximately 10^7 CFU of methicillin resistant S. aureus (MRSA43484) were spread on the skin lesions. […] This leads to the absolute application of 1 nmol, corresponding to ~10-fold less inhibitory AIP than previously tested in other murine epicutaneous infection models ([12], [13], [15]). After the inoculum had dried, the mice were placed in a cage and kept in a warming cabinet until fully awake. The topical skin treatment with Fucidin was initiated one day after inoculation (days 2, 3, and 4) by spreading 50 μL of Fucidin on the inoculated skin area once a day. Skin lesion size and body weight were measured on days 1, 2, and 4 of all mice. Mice were sacrificed on days 1 (n = 8 vehicle), 2 (n = 4 vehicle, Fucidin, 33), and 4 (n = 4 vehicle, Fucidin, 33), and the infected skin area was cut out and homogenized to determine the CFU count in the skin lesions. Statistical testing was conducted using one-way analysis of variance (ANOVA) with multiple comparisons (Dunnett’s test) and an alpha level of 0.05.

[4] = target: S. aureus agr-I spa-GFP reporter strain (JE2, MRSA) (Staphylococcus aureus, UniProt A0A0H2XKA3); assay: Fluorescence reporter assay for agr deactivation of virulent S. aureus (JE2 spa-GFP); assay type: cell-based; settings: GFP expression relative to non-induced cultures
S. aureus agr-I spa-GFP reporter strain (JE2, MRSA), sequence (A0A0H2XKA3 entry or part of it): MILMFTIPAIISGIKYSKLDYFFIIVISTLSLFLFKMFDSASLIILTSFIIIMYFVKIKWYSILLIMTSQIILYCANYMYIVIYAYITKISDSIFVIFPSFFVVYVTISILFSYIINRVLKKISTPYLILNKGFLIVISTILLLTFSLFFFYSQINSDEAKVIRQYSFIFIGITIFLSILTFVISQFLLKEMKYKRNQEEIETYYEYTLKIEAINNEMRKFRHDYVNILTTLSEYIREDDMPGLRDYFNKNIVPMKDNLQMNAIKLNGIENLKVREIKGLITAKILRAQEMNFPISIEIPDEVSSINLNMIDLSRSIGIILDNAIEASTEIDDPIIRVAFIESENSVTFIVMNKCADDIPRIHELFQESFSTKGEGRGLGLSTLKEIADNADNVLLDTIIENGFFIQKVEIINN
Description: A fluorescent reporter strain of S. aureus JE2 containing a plasmid with a spa::GFP promoter was constructed by transforming the strain with pALC1741 ([52]). Cultures of the reporter strain were grown from single colonies in TSB medium containing chloramphenicol (CAM, 10 μg/mL) and S. aureus AIP-I (1) (concentrations = 500 nM, 100 nM, or 50 nM) to OD600 = 0.2–0.3 (early exponential phase) at 37°C. Assays were performed in sterile black 96-well plates with clear bottoms. Peptide solutions (15 μL) in 1:5 serial dilutions from DMSO stock solutions (1 mM) in TSB medium were added to the 96-well plate in technical triplicate followed by the induced bacterial cultures (135 μL). Control wells were uninduced cultures containing no S. aureus AIP-I (1). The 96-well plates were incubated in a plate reader at 37°C shaking at 283 rpm and fluorescence (GFP: excitation 479 nm, emission 520 nm, automatic gain), and OD600 values were continuously measured. […] Relative GFP expression was plotted to obtain IC50 values by non-linear regression with variable slope using GraphPad Prism 10.4 software. All assays were performed in biological triplicate.

[5] = tested on: S. epidermidis (SE) agr-II; settings: fluorescence; at 100 nM; ref (11); cited from earlier work
S. aureus (SA) agr-I = tested on: S. aureus (SA) agr-I; design: method as in ref (5) (a number printed in a supplementary file, which may have a reference list of its own: not looked up in the article's list); settings: hemolysis; ref (5); cited from earlier work
[6] = tested on: S. epidermidis (SE) agr-III; settings: fluorescence; at 10 µM; ref (11); cited from earlier work
S. aureus (SA) agr-IV [7] = tested on: S. aureus (SA) agr-IV; design: method as in ref (5) (a number printed in a supplementary file, which may have a reference list of its own: not looked up in the article's list); settings: hemolysis; ref (5); cited from earlier work

## CC[C@H](C)[C@@H]1NC(=O)[C@H](Cc2ccccc2)NC(=O)[C@H](CC(=O)O)NC(=O)[C@@H](NC(=O)[C@@H](NC(=O)[C@H](CO)NC(=O)[C@@H](N)Cc2ccc(O)cc2)[C@@H](C)O)CSC(=O)[C@H](CCSC)NC1=O [compound 1, S. aureus AIP-I] (H-YSTCDFIM; thioester 4-C)
[1]
  inhibition at 1000 nM, SE agr-I: no inhibition
S. aureus (SA) agr-IV [2]
  EC50: 26000 nM
S. aureus (SA) agr-III; ref (2)
  IC50: 3.1 ± 1.3 nM
S. aureus (SA) agr-III; ref (4)
  IC50: 3 nM
S. aureus (SA) agr-II; ref (2)
  IC50: 3.4 ± 1.2 nM
S. aureus (SA) agr-II; ref (4)
  IC50: 25 nM

## NCCCC[C@H](N)C(=O)N[C@@H](Cc1ccc(O)cc1)C(=O)N[C@@H](Cc1ccc(O)cc1)C(=O)N1CCC[C@H]1C(=O)N[C@H]1CSC(=O)[C@H](Cc2ccccc2)NC(=O)[C@H](Cc2ccc(O)cc2)NC(=O)CNC(=O)[C@H](Cc2c[nH]c3ccccc23)NC1=O [compound 33, S. simulans AIP-II] (H-KYYPCWGYF; thioester 5-C)
[3]; 33: 100 μM in MRSA inoculum (10^7 CFU), single, Fucidin daily, P = 0.0174 (33), P = 0.0108 (fusidic acid)
  skin lesion size compared with the vehicle control after 48 h: significant reduction
[3]; 33: 100 μM in MRSA inoculum (10^7 CFU), single, Fucidin daily, P = 0.0249 (33), P = 0.0202 (fusidic acid)
  skin lesion size compared with the vehicle control after 96 h: significant reduction
[3]; 33: 100 μM single (P = 0.009), fusidic acid daily (P = 0.0168)
  decrease in bacterial load compared with vehicle control after 4 days: ~ 60 fold
[4]; induced with 1 [50 nM]
  IC50: 3.3 nM
[4]; induced with 1 [100 nM]
  IC50: 5.2 nM
[4]; induced with 1 [500 nM]
  IC50: 18.4 nM

## S. aureus AIP-III D4A [compound 57, reference compound]
[5]
  inhibition at 100 nM, SE agr-II: ~ 70%
S. aureus (SA) agr-I
  IC50: 0.082 nM
[6]
  inhibition at 10 µM, SE agr-III: ~ 25%
S. aureus (SA) agr-IV [7]
  IC50: 0.11 nM
